The numbers were not newly measured in article PMC7395068, “The evolution of strategies to minimise the risk of human drug-induced liver injury (DILI) in drug discovery and development” (Archives of Toxicology, 2020), which cites them from elsewhere.

SMILES strings stand for the structures. Where two headings read alike, the source gives them in different places.

The test system of data set [1] is HepG2 cells, primary human hepatocytes. The following applies: In vitro Assay; ref Garside 2014; cited from earlier work.
For data set [2] the following is noted: cited from earlier work.
The subject of data set [3] is human hepatocytes. The following applies: In vitro Assay; ref Xu 2008; cited from earlier work.
Data set [4] has as its system HepG2 cells. To be noted: In vitro Assay; ref Persson 2013; cited from earlier work.
In data set [5] the test system is HepG2 cells. To be noted: cited from earlier work.
The conditions of data set [6]: cited from earlier work. The source holds these as a separate data set.
Data set [7] relates to PHH. To be noted: In vitro Assay; ref Albrecht 2019; cited from earlier work.
The conditions of data set [8]: ref Chen 2011; cited from earlier work.
The subject of data set [9] is PHH spheroids. The following applies: In vitro Assay; ref Vorrink 2018; cited from earlier work.
Data set [10] has as its system HepG2. Set-up: method as in Albrecht 2019. The following applies: In vitro Assay; ref Albrecht 2019; cited from earlier work.
Data set [11] relates to isolated mouse liver mitochondria. The following applies: In vitro Assay; ref Porceddu 2012; cited from earlier work.
Data set [12] relates to HepG2 C3A spheroid, BSEP, Glu/Gal in HepG2 cells, bioactivation. To be noted: cited from earlier work.
In data set [13] the test system is PHH. The following applies: cited from earlier work.
Data set [14] deals with hLiMTs. The following applies: cited from earlier work.
In data set [15] the test system is THLE or HepG2 cells, isolated mitochondria, BSEP. The following applies: cited from earlier work.
Data set [16] relates to rBsep. The following applies: In vitro Assay; ref Dawson 2012; cited from earlier work.
Data set [17] has as its system primary human hepatocytes, NIH3T3 fibroblasts, BSEP, CYP3A4. To be noted: In vitro Assay; ref Schadt 2015; cited from earlier work.
The subject of data set [18] is THLE-Null and THLE-3A4 cells. The following applies: In vitro Assay; ref Gustafsson 2014; cited from earlier work.
Setting [19] is: In vitro Assay, ref O'Brien 2006.

On to `CC(CCc1ccccc1)NCC(O)c1ccc(O)c(C(N)=O)c1` (centres unmarked) [labetalol], for which the “Cluster 1-6 +VE Assay” value in data set [1] is “+VE”. Besides, the “In vivo DILI” value in data set [2] ([…]), in data set [2] (ref Albrecht 2019), in data set [2] (ref Aleo 2019), in data set [2] (ref Garside 2014), in data set [2] (ref O'Brien 2006) and in data set [2] (ref Persson 2013) was “+VE” in each case. Also, the “In vivo DILI” value in data set [2] (ref Vorrink 2018) and in data set [2] (ref Xu 2008) was “+VE” each time. In addition, the results for the “Structural based (HCI)” value in data set [3], in data set [4] and in data set [5] (setting [19]) were “+VE”, “-VE” and “+VE”, respectively. Further, in data set [4], the Cluser analysis result is listed as “-VE”. The “DILI +VE (5-8), DILI -VE (-4)” value in data set [6] (ref Chen 2016) was “+VE”. Moreover, in data set [6] (ref Chen 2016), the DILI severity category entry was “vMost-DILI-Concern”. Further, the “Cytotoxicity PHH 48 hrs” value in [7] is recorded as “+VE”. Further, in [8], the “DILI Score (FDA) (1-8)” value was 8. Also, the “hLiMTs ATP <20 x Cmax” value in [9] is listed as “-VE”. In addition, in data set [10], the “Cytotoxicity HepG2 48 hrs” value is on record as “+VE”.

In the case of `CS(=O)(=O)Nc1ccc([N+](=O)[O-])cc1Oc1ccccc1` [nimesulide], in data set [11], the “in vitro data EC2<=1x Cmax” value is on record as “+VE”. Further, in [2] (in vivo), the “In vivo DILI” value is listed as “+VE”. In addition, the “Bayesian Machine Learning” value in data set [12] is reported as “+VE”. For the same compound, in data set [5], the “Structural based (HCI)” value is reported as “+VE”. In [6] (in vivo), the “DILI +VE (5-8), DILI -VE (-4)” value was “+VE” and the DILI severity category result is on record as “vMost-DILI-Concern”. Also, the “PHH ATP <100uM” value in data set [13] was “+VE (key: +VE: IC50 threshold of 100 µM)”. Moreover, the “Cytotoxicity PHH 48 hrs” value in data set [7] is “+VE”. The “hLiMTs ATP <20 x Cmax” value in data set [9] is recorded as “+VE (IC20 < 20 × Cmax.tot cut-off)”. Further, the “Cytotoxicity HepG2 48 hrs” value in data set [10] was “+VE”. Besides, the “hLiMTs ATP <100uM” value in data set [14] is “+VE (key: +VE: IC50 threshold of 100 µM)”. Moreover, the “Ro2 Hybrid HRM Score” value in [15] was “+VE”.

Regarding `NC(N)=Nc1nc(CSCCC(N)=NS(N)(=O)=O)cs1` [famotidine], in [1], the “Cluster 1-6 +VE Assay” value is given as “-VE”. In addition, the “In vivo DILI” value in [2] (ref Albrecht 2019) is reported as “-VE”; in data set [2] (ref Dawson 2012), “+VE”; in data set [2] (ref Garside 2014), “+VE”; in data set [2] (ref O'Brien 2006), “+VE”; in data set [2] (ref Xu 2008), “-VE”. Besides, the “Structural based (HCI)” value in data set [3] was “-VE”; in [5] (setting [19]), “+VE”. The “DILI +VE (5-8), DILI -VE (-4)” value in data set [6] (ref Chen 2016) is “+VE”. The DILI severity category result in data set [6] (ref Chen 2016) is listed as “vLess-DILI-Concern”. Further, the “Cytotoxicity PHH 48 hrs” value in data set [7] is listed as “-VE”. In addition, the “DILI Score (FDA) (1-8)” value in data set [8] is recorded as 3. Besides, in data set [10], the “Cytotoxicity HepG2 48 hrs” value is “-VE”. The “Inhibition of rBsep cutoff<1& cmax u>.2” value in data set [16] was “-VE”. Also, the “Inhibition of rBsep cutoff<3” value in data set [16] is on record as “-VE”.

Consider `Clc1cccc(Cl)c1N=C1NCCN1` [clonidine], for which the “In vivo DILI” value in [2] (ref Albrecht 2019) is reported as “-VE”. In addition, in [2] (ref Schadt 2015), the “In vivo DILI” value is “-VE”. Further, the “In vivo DILI” value in [2] (ref Xu 2008) is “+VE”. In addition, the “Structural based (HCI)” value in data set [3] is “-VE”. Besides, in [6] (ref Chen 2016), the “DILI +VE (5-8), DILI -VE (-4)” value is listed as “-VE” and the DILI severity category result was “Ambiguous DILI-concern”. Also, the “Cytotoxicity PHH 48 hrs” value in data set [7] is “-VE”. The “DILI Score (FDA) (1-8)” value in data set [8] is recorded as 3. In addition, in data set [10], the “Cytotoxicity HepG2 48 hrs” value is given as “-VE”. Further, in data set [17], the “Cellular toxicity (3T3 cells)” value is reported as “-VE”, the “Combined Assay” value is “-VE”, the “GSH adduct HML” value is given as “-VE” and the Hepatocyte cellular toxicity result is “-VE”. For the same compound, in data set [17], the “MitoTox 3T3” value is given as “-VE”, the “TDI CYP3A4” value was “-VE” and the hBSEP inhibition entry is listed as “-VE”. Also, in [15] (In vitro Assay, ref Aleo 2019), the “Partition Hybrid HRM Score” value is reported as “-VE” and the “Ro2 Hybrid HRM Score” value is listed as “-VE”.

In the case of `Cc1oncc1C(=O)Nc1ccc(C(F)(F)F)cc1` [leflunomide], in data set [18], the THLE-Null entry is “-VE” and the THLE-Null/3A4 result is listed as “-VE”. Also, in [1], the “Cluster 1-6 +VE Assay” value is “-VE”. For the same compound, the “In vivo DILI” value in data set [2] (ref Albrecht 2019) is “+VE”. In addition, in data set [2] (ref Aleo 2019), the “In vivo DILI” value is listed as “+VE”. The “In vivo DILI” value in data set [2] (ref Dawson 2012) was “+VE”. Also, the “In vivo DILI” value in data set [2] (ref Garside 2014) is recorded as “+VE”. Besides, in data set [2] (ref Gustafsson 2014), the “In vivo DILI” value is reported as “+VE”. For the same compound, the “In vivo DILI” value in data set [2] (ref O'Brien 2006) is “+VE”. Moreover, in data set [2] (ref Schadt 2015), the “In vivo DILI” value is “+VE”. Moreover, the “In vivo DILI” value in data set [2] (ref Xu 2008) is given as “+VE”. Also, the “Structural based (HCI)” value in data set [3] is on record as “-VE”. For the same compound, the “Structural based (HCI)” value in [5] (setting [19]) is “+VE”. In data set [6] (ref Chen 2016), the “DILI +VE (5-8), DILI -VE (-4)” value is on record as “+VE” and the DILI severity category result is reported as “vMost-DILI-Concern”. In data set [7], the “Cytotoxicity PHH 48 hrs” value is “+VE”. Further, the “DILI Score (FDA) (1-8)” value in [8] is 8. Further, the “Cytotoxicity HepG2 48 hrs” value in data set [10] is reported as “+VE”. For the same compound, in data set [16], the “Inhibition of rBsep cutoff<1& cmax u>.2” value is on record as “-VE” and the “Inhibition of rBsep cutoff<3” value was “+VE”. Moreover, in data set [17], the “Cellular toxicity (3T3 cells)” value was “-VE”, the “Combined Assay” value is “-VE”, the “GSH adduct HML” value is on record as “+VE” and the Hepatocyte cellular toxicity entry is on record as “-VE”. For the same compound, in data set [17], the “MitoTox 3T3” value is “-VE”, the “TDI CYP3A4” value is “-VE” and the hBSEP inhibition entry is recorded as “-VE”. Also, in data set [15] (In vitro Assay, ref Aleo 2019), the “Partition Hybrid HRM Score” value was “+VE” and the “Ro2 Hybrid HRM Score” value is recorded as “+VE”.

As for `Cc1ccnc2c1NC(=O)c1cccnc1N2C1CC1` [nevirapine], the “Cluster 1-6 +VE Assay” value in [1] is “-VE”. The “In vivo DILI” value in data set [2] ([…]) is recorded as “+VE”. Moreover, the “In vivo DILI” value in [2] (ref Albrecht 2019) was “+VE”. The “In vivo DILI” value in data set [2] (ref Aleo 2019) is “+VE”. Further, the “In vivo DILI” value in data set [2] (ref Garside 2014) is given as “+VE”. Further, in data set [2] (ref Schadt 2015), the “In vivo DILI” value is recorded as “+VE”. In data set [6] (ref Chen 2016), the “DILI +VE (5-8), DILI -VE (-4)” value is “+VE” and the DILI severity category entry is reported as “vMost-DILI-Concern”. Moreover, the “Cytotoxicity PHH 48 hrs” value in [7] is given as “+VE”. Further, the “DILI Score (FDA) (1-8)” value in data set [8] is given as 8. Also, the “Cytotoxicity HepG2 48 hrs” value in data set [10] was “+VE”. Besides, in data set [17], the “Cellular toxicity (3T3 cells)” value is “-VE”, the “Combined Assay” value is given as “+VE”, the “GSH adduct HML” value is reported as “+VE” and the Hepatocyte cellular toxicity result was “-VE”. In data set [17], the “MitoTox 3T3” value is given as “+VE”, the “TDI CYP3A4” value is recorded as “-VE” and the hBSEP inhibition result was “-VE”. Also, in data set [15] (In vitro Assay, ref Aleo 2019), the “Partition Hybrid HRM Score” value is on record as “+VE” and the “Ro2 Hybrid HRM Score” value is “-VE”.
